# Paper PMC2364737, “Phase I and pharmacokinetic (PK) study of MAG-CPT (PNU 166148): a polymeric derivative of camptothecin (CPT)” (British Journal of Cancer, 2004)
# How the values were obtained:
# [1] = test system: colon, stomach, pancreas, ovary, breast, lung, and melanoma xenograft models; conditions: preclinical studies; cited from earlier work
# [2] = test system: patients; conditions: first 3 days of a 28-day cycle; ref Schoemaker et al, 2002; cited from earlier work
# [3] = test system: patients with advanced solid malignancies; assay: Phase I dose escalation study: safety, dose-limiting toxicity and MTD; format: in vivo, human
# Method: This was an open-label nonrandomised dose escalation study, conducted in sequential cohorts of patients from two institutions, Aberdeen Royal Infirmary, Aberdeen, and the Beatson Oncology Centre, Glasgow. It was performed under the auspices of the Cancer Research Campaign, London, with sponsorship by Pharmacia and Upjohn, Milan.
# All patients had histologically or cytologically proven advanced solid malignancy that was refractory to conventional therapy. […] All patients gave written informed consent according to local Ethics Committee guidelines.
# All doses of the investigational agent are expressed as mg of CPT equivalent. The drug was stored at room temperature. The vials were reconstituted with 10 ml normal saline and the dose to be administered was made up in 100 ml saline in a PVC infusion bag.
# Thereafter, dose escalation was to continue according to a modified Fibonacci series. The dose escalation scheme could, however, be modified if considered appropriate based on acquired clinical and pharmacokinetic data. The MTD was defined as the highest dose at which at least three of six patients had dose-limiting toxicity (DLT).
# Patients were to be retreated at 28-day intervals for up to six cycles. […] Treatment could be delayed for up to 2 weeks to allow resolution of toxicity.
# (§1) During the course of the study patients were reviewed in the clinic every week with toxicity assessment, physical examination, FBC, and serum chemistry. Tumour assessment by imaging was repeated every three cycles. Chest X-ray and ECG were repeated at the end of study.
# [4] = test system: advanced solid malignancy
# From the text: as §1
# [5] = test system: patients; conditions: cited from earlier work
compound,measurement,setting,value
"copolymer of N-(hydroxypropyl) methacrylamide, (20-O-(N-methacryloyl-glycyl-aminohexanoyl-glycyl)) camptothecin and N-(2-hydroxypropyl) methacryloyl glycinamide [MAG-CPT]",activity in xenograft models,[1],active
same,antitumour activity,[2],no evidence of antitumour activity
same,patients with grade 2 dysuria and haematuria during cycle 2,[3]; 200 mg m^−2,one of the eight patients
same,dose recommended for phase II / further clinical study,"[3]; 30-min infusion once every 4 weeks, dose as mg equivalent camptothecin",200 mg m^−2
same,nausea and vomiting grade 1,[3]; dose levels 30–120 mg m^−2,observed sporadically
same,antitumour effect in a patient with renal carcinoma,"[4]; 60 mg m^−2, patient had progressive disease with brain metastases",regression of cutaneous metastases was observed
same,objective antitumour responses,"[4]; all dose levels, 23 patients",No objective antitumour responses were seen
CC[C@@]1(O)C(=O)OCc2c1cc1n(c2=O)Cc2cc3ccccc3nc2-1 [Camptothecin],responses in early clinical trials,"[5]; colorectal cancer, small bowel carcinoma, and melanoma",responses to CPT were observed
same,unpredictable and severe toxicity in early clinical trials,"[5]; ref Gottlieb et al, 1970, Muggia et al, 1972","myelosuppression, gastrointestinal toxicity, and haemorrhagic cystitis"
